The values below are quoted from earlier work in US11304902B2, “Pharmaceutical compositions, preparation and uses thereof” (CURADIGM SAS, priority 2014, dated 2022).

Common to all, as to settings: human CYP enzyme
In data set [1] the target is T1, CYP4F2 (Homo sapiens, UniProt P78329).
T1 sequence (P78329 5-520): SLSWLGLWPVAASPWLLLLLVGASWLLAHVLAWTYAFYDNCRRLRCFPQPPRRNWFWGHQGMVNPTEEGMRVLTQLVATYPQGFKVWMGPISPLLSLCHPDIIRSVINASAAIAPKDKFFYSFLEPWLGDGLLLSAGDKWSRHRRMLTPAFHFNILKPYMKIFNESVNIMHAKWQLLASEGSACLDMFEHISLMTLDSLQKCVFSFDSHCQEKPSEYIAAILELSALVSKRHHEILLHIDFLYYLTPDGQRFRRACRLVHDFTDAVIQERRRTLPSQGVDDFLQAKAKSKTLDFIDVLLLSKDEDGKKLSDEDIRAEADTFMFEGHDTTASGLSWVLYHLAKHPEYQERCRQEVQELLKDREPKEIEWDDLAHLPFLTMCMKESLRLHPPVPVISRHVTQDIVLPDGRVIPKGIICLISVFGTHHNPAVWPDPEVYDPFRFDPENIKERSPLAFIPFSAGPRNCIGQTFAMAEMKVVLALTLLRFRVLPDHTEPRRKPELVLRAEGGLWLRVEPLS

In data set [2] the target is T2, CYP2A6 (Homo sapiens, UniProt P11509).
T2 sequence (P11509 1-494): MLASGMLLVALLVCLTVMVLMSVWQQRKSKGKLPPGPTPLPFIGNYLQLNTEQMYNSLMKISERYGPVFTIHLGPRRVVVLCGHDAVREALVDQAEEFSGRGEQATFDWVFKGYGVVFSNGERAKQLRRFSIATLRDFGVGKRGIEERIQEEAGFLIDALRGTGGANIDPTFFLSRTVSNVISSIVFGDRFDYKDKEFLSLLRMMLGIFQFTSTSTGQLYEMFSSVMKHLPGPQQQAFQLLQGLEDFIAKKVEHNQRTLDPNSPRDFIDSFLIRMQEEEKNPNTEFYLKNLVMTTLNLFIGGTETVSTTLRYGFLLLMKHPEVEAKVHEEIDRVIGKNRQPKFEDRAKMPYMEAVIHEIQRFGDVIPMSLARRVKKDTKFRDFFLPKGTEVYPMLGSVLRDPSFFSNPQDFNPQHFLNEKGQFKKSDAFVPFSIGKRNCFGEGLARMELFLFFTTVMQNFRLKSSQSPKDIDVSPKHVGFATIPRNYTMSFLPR

Data set [3] has as its target T3, CYP4F12 (Homo sapiens, UniProt Q9HCS2).
T3 sequence (Q9HCS2 1-524): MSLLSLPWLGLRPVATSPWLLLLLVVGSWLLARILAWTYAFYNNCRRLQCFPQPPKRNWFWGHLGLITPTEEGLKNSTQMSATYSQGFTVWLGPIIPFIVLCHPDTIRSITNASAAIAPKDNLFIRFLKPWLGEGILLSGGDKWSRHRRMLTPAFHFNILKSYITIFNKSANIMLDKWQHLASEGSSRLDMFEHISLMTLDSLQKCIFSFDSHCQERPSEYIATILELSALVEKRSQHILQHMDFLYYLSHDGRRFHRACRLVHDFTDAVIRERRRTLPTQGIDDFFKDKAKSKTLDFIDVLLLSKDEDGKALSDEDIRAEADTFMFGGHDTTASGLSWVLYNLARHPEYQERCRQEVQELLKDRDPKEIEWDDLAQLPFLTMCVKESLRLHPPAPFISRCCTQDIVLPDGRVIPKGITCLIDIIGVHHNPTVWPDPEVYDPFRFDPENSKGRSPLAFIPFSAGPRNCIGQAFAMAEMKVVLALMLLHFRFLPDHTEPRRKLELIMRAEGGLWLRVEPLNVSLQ

Data set [4] has as its target T4, CYP1A2 (Homo sapiens, UniProt P05177).
T4 sequence (P05177 1-516): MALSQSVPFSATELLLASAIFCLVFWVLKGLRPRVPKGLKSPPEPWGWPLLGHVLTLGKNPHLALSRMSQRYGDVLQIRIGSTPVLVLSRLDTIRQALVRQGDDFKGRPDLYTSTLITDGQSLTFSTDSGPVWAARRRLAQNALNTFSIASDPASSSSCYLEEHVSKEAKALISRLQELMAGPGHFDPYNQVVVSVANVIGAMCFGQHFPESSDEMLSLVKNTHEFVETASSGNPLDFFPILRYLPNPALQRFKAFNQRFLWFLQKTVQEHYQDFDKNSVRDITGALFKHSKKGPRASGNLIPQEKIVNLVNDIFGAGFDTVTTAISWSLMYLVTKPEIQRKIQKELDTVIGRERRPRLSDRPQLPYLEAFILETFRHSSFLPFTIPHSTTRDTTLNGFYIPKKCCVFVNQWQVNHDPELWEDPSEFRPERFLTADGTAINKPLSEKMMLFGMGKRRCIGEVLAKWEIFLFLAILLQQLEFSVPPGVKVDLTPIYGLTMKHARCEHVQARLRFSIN

In data set [5] the target is CYP3A4 (Homo sapiens, UniProt P08684).
CYP3A4, sequence (P08684 whole entry): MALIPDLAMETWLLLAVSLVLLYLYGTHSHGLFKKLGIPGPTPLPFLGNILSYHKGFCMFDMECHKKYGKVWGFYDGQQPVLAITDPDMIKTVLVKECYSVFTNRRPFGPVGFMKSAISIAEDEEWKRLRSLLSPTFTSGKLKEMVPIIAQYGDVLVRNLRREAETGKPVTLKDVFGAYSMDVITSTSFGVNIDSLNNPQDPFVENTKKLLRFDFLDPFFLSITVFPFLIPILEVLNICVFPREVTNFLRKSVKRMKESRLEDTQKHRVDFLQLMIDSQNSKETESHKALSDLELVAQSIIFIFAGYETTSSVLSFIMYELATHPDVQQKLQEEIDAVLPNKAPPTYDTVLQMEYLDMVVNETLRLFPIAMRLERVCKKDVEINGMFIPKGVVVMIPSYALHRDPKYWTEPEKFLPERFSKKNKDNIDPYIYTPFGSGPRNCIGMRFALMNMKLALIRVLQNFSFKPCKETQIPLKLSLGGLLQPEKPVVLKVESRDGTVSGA

Entries after “also recorded” stand apart in the source; their conditions may differ.

As for `CCCCC/C=C\C/C=C\C/C=C\C/C=C\CCCC(=O)O` [Arachidonic acid, arachidonic acid], the “role towards CYP4F2 (substrate / inhibitor / inducer)” value in data set [1] is “Substrate”. Also, in data set [2], the “role towards CYP2A6 (substrate / inhibitor / inducer)” value is listed as “Substrate”. Also, the “role towards CYP4F12 (substrate / inhibitor / inducer)” value in data set [3] is reported as “Substrate”. Besides, in data set [4], the “role towards CYP1A2 (substrate / inhibitor / inducer)” value is listed as “Substrate; also recorded: Inhibitor”. Also, the “role towards CYP3A4 (substrate / inhibitor / inducer)” value in data set [5] is recorded as “Inhibitor; also recorded: Substrate”.
